Here are results for one substance from US20240287131A1, “PEPTIDE” (AGC Inc., priority 2021, published 2024).

The assay relates to HeLa cells. As to the kind of experiment: Evaluation of ability to permeate cell membrane (uptake into cells, flow cytometry of Alexa Fluor 647 fluorescence). Format: cell-based. The note with it: 1.5 μM sample solution, 37° C., 1 hour; ratio to fluorescent dye 1. On the technique in general: In flow cytometry, cells or beads pass a laser one at a time.

Procedure: A DMSO solution of the synthesized peptide fluorescent conjugates 1, 4, and 5, and fluorescent dye 1 was diluted using a DMEM low-glucose culture solution to a concentration of 1.5 μM, the concentration of the DMSO contained was adjusted to 0.15%, and the resulting solution was used as a sample solution for a cell membrane permeability test.
HeLa cells were seeded in a 96-well cell culture plate 24 hours before peptide treatment (0.5×10^5 cells/well).
The medium of HeLa cells pre-cultured at 37° C. for 24 hours was replaced with a sample solution of the peptide fluorescent conjugates 1, 4, and 5 and the fluorescent dye 1, and the ability to permeate a cell membrane after culturing at 37° C. for 1 hour was evaluated. […] The collected cells were analyzed by flow cytometry (guava easyCyte (trademark) 8) measuring red 2 fluorescence (661/15 nm) for detecting the fluorescent dye (Alexa Fluor647) introduced into the peptide fluorescent conjugate.
Using sample solutions of the peptide fluorescent conjugates 1 and 2, TAT-Alexa, and the fluorescent dye 1 prepared in the same manner as in Test Example 1, the red 2 fluorescence (661/15 nm) was measured and analyzed by flow cytometry by the same procedure as in Test Example 1. […]

Regarding “TAT-Alexa: Alexa Fluor 647 C2 Maleimide added to the terminal Cys of Cys-TAT(47-57), commercially available cell-penetrating peptide (YGRKKRRQRRR; N-terminal Cys with Alexa Fluor 647; C-terminal amide; printed: Tyr-Gly-Arg-Lys-Lys-Arg-Arg-Gln-Arg-Arg-Arg-)”, the “average value of the fluorescence intensities of Alexa Fluor 647 in cells (MFI) relative to cells treated with the fluorescent dye 1” value is on record as “about double”.
